Test results taken from patent publication US20140058103A1, “Inhibitors of PI3K-Delta and Methods of Their Use and Manufacture” (Exelixis, Inc., priority 2010, published 2014).
pIC50: −log10 of the molar value.

Target: PI3K delta (Homo sapiens, UniProt O00329)
Experiment: Luciferase-coupled chemiluminescence kinase assay (ATP consumption, KinaseGlo)
Type: biochemical
Procedure, shortened: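 Compound, kinase and ATP (≤ KM) reacted 2 h at ambient temperature, then remaining ATP quantified with luciferase-luciferin (KinaseGlo) luminescence as percent consumed.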

Chain of PI3K delta (O00329 whole entry): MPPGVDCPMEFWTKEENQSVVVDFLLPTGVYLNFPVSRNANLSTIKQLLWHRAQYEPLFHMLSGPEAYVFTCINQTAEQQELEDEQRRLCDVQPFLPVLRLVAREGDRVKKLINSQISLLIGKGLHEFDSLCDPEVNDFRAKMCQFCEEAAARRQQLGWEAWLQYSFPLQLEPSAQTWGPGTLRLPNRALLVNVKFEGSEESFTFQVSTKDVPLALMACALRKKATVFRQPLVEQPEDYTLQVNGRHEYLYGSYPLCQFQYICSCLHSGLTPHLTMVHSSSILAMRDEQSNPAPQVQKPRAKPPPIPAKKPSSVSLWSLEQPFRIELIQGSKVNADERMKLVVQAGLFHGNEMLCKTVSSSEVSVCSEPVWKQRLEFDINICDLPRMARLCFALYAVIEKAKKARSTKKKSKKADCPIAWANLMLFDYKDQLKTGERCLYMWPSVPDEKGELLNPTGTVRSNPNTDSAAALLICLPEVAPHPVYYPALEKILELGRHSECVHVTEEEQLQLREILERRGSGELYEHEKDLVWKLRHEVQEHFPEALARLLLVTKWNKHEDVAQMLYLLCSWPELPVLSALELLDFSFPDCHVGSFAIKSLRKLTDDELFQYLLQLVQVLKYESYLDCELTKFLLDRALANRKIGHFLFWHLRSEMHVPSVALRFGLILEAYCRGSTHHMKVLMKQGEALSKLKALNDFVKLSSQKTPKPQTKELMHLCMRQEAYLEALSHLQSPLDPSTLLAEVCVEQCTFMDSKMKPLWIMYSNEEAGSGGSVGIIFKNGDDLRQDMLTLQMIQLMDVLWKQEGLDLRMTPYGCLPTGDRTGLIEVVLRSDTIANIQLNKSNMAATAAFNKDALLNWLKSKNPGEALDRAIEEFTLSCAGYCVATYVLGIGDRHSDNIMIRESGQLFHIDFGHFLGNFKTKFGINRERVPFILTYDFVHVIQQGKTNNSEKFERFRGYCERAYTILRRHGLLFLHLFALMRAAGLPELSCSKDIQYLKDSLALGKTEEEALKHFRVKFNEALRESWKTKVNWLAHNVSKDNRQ
Chain of PI3K delta (P27986 whole entry partner): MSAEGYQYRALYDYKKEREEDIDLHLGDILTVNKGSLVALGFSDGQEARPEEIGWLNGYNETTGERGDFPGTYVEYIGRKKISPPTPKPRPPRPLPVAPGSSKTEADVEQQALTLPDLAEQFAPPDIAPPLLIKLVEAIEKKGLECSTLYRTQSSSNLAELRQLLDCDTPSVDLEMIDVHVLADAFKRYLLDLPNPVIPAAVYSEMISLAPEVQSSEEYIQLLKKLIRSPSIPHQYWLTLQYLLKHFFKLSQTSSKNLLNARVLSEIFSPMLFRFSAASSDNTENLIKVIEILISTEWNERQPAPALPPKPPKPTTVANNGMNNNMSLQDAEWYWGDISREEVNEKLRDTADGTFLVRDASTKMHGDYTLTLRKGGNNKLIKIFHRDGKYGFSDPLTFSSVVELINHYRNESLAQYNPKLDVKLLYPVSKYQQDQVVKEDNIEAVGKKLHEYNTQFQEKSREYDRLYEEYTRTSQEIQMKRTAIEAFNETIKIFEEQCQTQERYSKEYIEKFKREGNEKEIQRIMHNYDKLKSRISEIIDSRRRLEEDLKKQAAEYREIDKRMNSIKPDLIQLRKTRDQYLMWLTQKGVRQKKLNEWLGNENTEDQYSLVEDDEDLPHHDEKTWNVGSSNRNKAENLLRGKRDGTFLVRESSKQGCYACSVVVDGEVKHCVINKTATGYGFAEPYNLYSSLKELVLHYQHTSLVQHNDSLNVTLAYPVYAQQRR

Row | SMILES | pIC50
1 | CCn1c(C(=O)NCC(C)(C)C)nc2c(N3CCC4(CC3)C(=O)Nc3ccccc34)ncnc21 [Compound 217, N-(2,2-dimethylpropyl)-9-ethyl-6-(2-oxo-1,2-dihydro-1′H-spiro[indole-3,4′-piperidin]-1′-yl)-9H-purine-8-carboxamide] | > 7.30
2 | O=C(NCC1CC1)c1nc2c(N3CCC4(CC3)C(=O)Nc3ccccc34)ncnc2n1C1CC1 [Compound 175, 9-cyclopropyl-N-(cyclopropylmethyl)-6-(2-oxo-1,2-dihydro-1′H-spiro[indole-3,4′-piperidin]-1′-yl)-9H-purine-8-carboxamide] | 6.60 to 7.30
3 | Cn1cc(-c2nc3c(N4CCN(c5ccccc5CNC(=O)C5CC5)CC4)ncnc3n2C)cn1 [Compound 362, N-[(2-{4-[9-methyl-8-(1-methyl-1H-pyrazol-4-yl)-9H-purin-6-yl]piperazin-1-yl)phenyl)methyl]cyclopropane-carboxamide] | 5.82 to 6.30
4 | Cn1c(C(=O)NCCCc2ccccc2)nc2c(N3CCC(n4c(=O)[nH]c5ccccc54)CC3)ncnc21 [Compound 65, 9-methyl-6-[4-(2-oxo-2,3-dihydro-1H-benzimidazol-1-yl)piperidin-1-yl]-N-(3-phenylpropyl)-9H-purine-8-carboxamide] | 5.82 to 6.30
5 | Cn1c(-c2cncnc2)nc2c(N3CCC(n4c(=O)[nH]c5ccccc54)CC3)ncnc21 [Compound 271, 1-[1-(9-methyl-8-pyrimidin-5-yl-9H-purin-6-yl)piperidin-4-yl]-1,3-dihydro-2H-benzimidazol-2-one] | > 7.30
6 | Cn1c(C(=O)N2CCC(F)(F)C2)nc2c(N3CCC(n4c(=O)[nH]c5ccccc54)CC3)ncnc21 [Compound 108, 1-(1-{8-[(3,3-difluoropyrrolidin-1-yl)carbonyl]-9-methyl-9H-purin-6-yl}piperidin-4-yl)-1,3-dihydro-2H-benzimidazol-2-one] | 6.60 to 7.30
7 | Cn1c(C(=O)NCCCO)nc2c(N3CCC4(CC3)C(=O)Nc3ccccc34)ncnc21 [Compound 19, N-(3-hydroxypropyl)-9-methyl-6-(2-oxo-1,2-dihydro-1′H-spiro[indole-3,4′-piperidin]-1′-yl)-9H-purine-8-carboxamide] | 6.60 to 7.30
8 | CCn1c(-c2cnn(C)c2)nc2c(N3CCC4(CC3)C(=O)Nc3ccccc34)ncnc21 [Compound 245, 1′-[9-ethyl-8-(1-methyl-1H-pyrazol-4-yl)-9H-purin-6-yl]spiro[indole-3,4′-piperidin]-2(1H)-one] | > 7.30
9 | CC(C)CCNC(=O)c1nc2c(N3CCC(n4c(=O)[nH]c5ccccc54)CC3)ncnc2n1C [Compound 72, 9-methyl-N-(3-methylbutyl)-6-[4-(2-oxo-2,3-dihydro-1H-benzimidazol-1-yl)piperidin-1-yl]-9H-purine-8-carboxamide] | 6.60 to 7.30
10 | Cn1c(C(=O)NCC2CC2)nc2c(N3CCC(n4c(=O)oc5ccccc54)CC3)ncnc21 [Compound 118, N-(cyclopropylmethyl)-9-methyl-6-[4-(2-oxo-1,3-benzoxazol-3(2H)-yl)piperidin-1-yl]-9H-purine-8-carboxamide] | 6.60 to 7.30
11 | COc1ccc(OC)c(S(=O)(=O)N2CCN(c3ncnc4c3nc(-c3cnn(C)c3)n4C)CC2)c1 [Compound 376, 6-(4-([2,5-bis(methyloxy)phenyl]sulfonyl}-piperazin-1-yl)-9-methyl-8-(1-methyl-1H-pyrazol-4-yl)-9H-purine] | 6.30 to 6.60
12 | Cn1c(C(=O)NC2CCC(F)(F)CC2)nc2c(N3CCC(n4c(=O)[nH]c5ccccc54)CC3)ncnc21 [Compound 107, N-(4,4-difluorocyclohexyl)-9-methyl-6-[4-(2-oxo-2,3-dihydro-1H-benzimidazol-1-yl)piperidin-1-yl]-9H-purine-8-carboxamide] | 6.60 to 7.30
13 | Cn1c(-c2ccc(C(F)(F)F)nc2)nc2c(N3CCC4(CC3)C(=O)Nc3ccccc34)ncnc21 [Compound 327, 1′-{9-methyl-8-[6-(trifluoromethyl)pyridin-3-yl]-9H-purin-6-yl}spiro[indole-3,4′-piperidin]-2(1H)-one] | > 7.30
14 | Cn1c(C(=O)NCC2CC2)nc2c(N3CCC(n4c(=O)[nH]c5c(F)cccc54)CC3)ncnc21 [Compound 278, N-(cyclopropylmethyl)-6-[4-(4-fluoro-2-oxo-2,3-dihydro-1H-benzimidazol-1-yl)piperidin-1-yl]-9-methyl-9H-purine-8-carboxamide] | 6.60 to 7.30
15 | Cn1c(C(=O)N2CCCC2)nc2c(N3CCC(n4c(=O)[nH]c5ccccc54)CC3)ncnc21 [Compound 68, 1-{1-[9-methyl-8-(pyrrolidin-1-ylcarbonyl)-9H-purin-6-yl]piperidin-4-yl}-1,3-dihydro-2H-benzimidazol-2-one] | 6.30 to 6.60
16 | CCn1cc(-c2nc3c(N4CCC5(CC4)C(=O)Nc4ccccc45)ncnc3n2CC)cn1 [Compound 250, 1′-[9-ethyl-8-(1-ethyl-1H-pyrazol-4-yl)-9H-purin-6-yl]spiro[indole-3,4′-piperidin]-2(1H)-one] | > 7.30
17 | Cn1c(C(=O)NCC2CC2)nc2c(N3CC(n4c(=O)[nH]c5ccccc54)C3)ncnc21 [Compound 137, N-(cyclopropylmethyl)-9-methyl-6-[3-(2-oxo-2,3-dihydro-1H-benzimidazol-1-yl)azetidin-1-yl]-9H-purine-8-carboxamide] | 6.60 to 7.30

Row | SMILES | pIC50
18 | Cn1cc(-c2nc3c(N4CCN(S(=O)(=O)Cc5ccccc5)CC4)ncnc3n2C)cn1 [Compound 371, 9-methyl-8-(1-methyl-1H-pyrazol-4-yl)-6-{4-[(phenylmethyl)sulfonyl]piperazin-1-yl)-9H-purine] | 6.30 to 6.60
19 | Cn1c(C(=O)N2CC[C@H](F)C2)nc2c(N3CCC4(CC3)C(=O)Nc3ccccc34)ncnc21 [Compound 109, 1′-(8-{[(3S)-3-fluoropyrrolidin-1-yl]carbonyl}-9-methyl-9H-purin-6-yl)spiro[indole-3,4′-piperidin]-2(1H)-one] | 6.60 to 7.30
20 | Cn1c(C(=O)N[C@H]2CC[C@H](O)CC2)nc2c(N3CCC(n4c(=O)[nH]c5ccccc54)CC3)ncnc21 [Compound 111, N-(trans-4-hydroxycyclohexyl)-9-methyl-6-[4-(2-oxo-2,3-dihydro-1H-benzimidazol-1-yl)piperidin-1-yl]-9H-purine-8-carboxamide] | > 7.30
21 | Cn1c(C(=O)NCC2CCCO2)nc2c(N3CCC4(CC3)C(=O)Nc3ccccc34)ncnc21 (stereo not drawn) [Compound 85, 9-methyl-6-(2-oxo-1,2-dihydro-1′H-spiro[indole-3,4′-piperidin]-1′-yl)-N-(tetrahydrofuran-2-ylmethyl)-9H-purine-8-carboxamide] | 5.82 to 6.30
22 | CN(C)CCOc1cccc2c1[nH]c(=O)n2C1CCN(c2ncnc3c2nc(C(=O)NCC2CC2)n3C)CC1 [Compound 276, N-(cyclopropylmethyl)-6-[4-(4-{[2-(dimethylamino)ethyl]oxy}-2-oxo-2,3-dihydro-1H-benzimidazol-1-yl)piperidin-1-yl]-9-methyl-9H-purine-8-carboxamide] | 6.30 to 6.60
23 | CC(C)CCNC(=O)c1nc2c(N3CCC4(CC3)C(=O)Nc3ccccc34)ncnc2n1C [Compound 40, 9-methyl-N-(3-methylbutyl)-6-(2-oxo-1,2-dihydro-1′H-spiro[indole-3,4′-piperidin]-1′-yl)-9H-purine-8-carboxamide] | 6.60 to 7.30
24 | CCn1c(C(=O)NCC(F)(F)F)nc2c(N3CCC(n4c(=O)[nH]c5ncccc54)CC3)ncnc21 [Compound 318, 9-ethyl-6-[4-(2-oxo-2,3-dihydro-1H-imidazo[4,5-b]pyridin-1-yl)piperidin-1-yl]-N-(2,2,2-trifluoroethyl)-9H-purine-8-carboxamide] | > 7.30
25 | CN(C)c1ncc(-c2nc3c(N4CCC(n5c(=O)[nH]c6ccccc65)CC4)ncnc3n2C)cn1 [Compound 311, 1-(1-{8-[2-(dimethylamino)pyrimidin-5-yl]-9-methyl-9H-purin-6-yl}piperidin-4-yl)-1,3-dihydro-2H-benzimidazol-2-one] | > 7.30
26 | Cn1c(C(=O)N2CC(O)C2)nc2c(N3CCC(n4c(=O)[nH]c5ccccc54)CC3)ncnc21 [Compound 74, 1-(1-{8-[(3-hydroxyazetidin-1-yl)carbonyl]-9-methyl-9H-purin-6-yl}piperidin-4-yl)-1,3-dihydro-2H-benzimidazol-2-one] | 6.60 to 7.30
27 | Cn1c(C(=O)NCc2cccc(F)c2)nc2c(N3CCC(n4c(=O)[nH]c5ccccc54)CC3)ncnc21 [Compound 58, N-[(3-fluorophenyl)methyl]-9-methyl-6-[4-(2-oxo-2,3-dihydro-1H-benzimidazol-1-yl)piperidin-1-yl]-9H-purine-8-carboxamide] | 6.60 to 7.30
28 | CCn1c(C(=O)NCc2nnc(C)o2)nc2c(N3CCC4(CC3)C(=O)Nc3ccccc34)ncnc21 [Compound 207, 9-ethyl-N-[(5-methyl-1,3,4-oxadiazol-2-yl)methyl]-6-(2-oxo-1,2-dihydro-1′H-spiro[indole-3,4′-piperidin]-1′-yl)-9H-purine-8-carboxamide] | 6.30 to 6.60
29 | Cn1c(-c2cncc(Br)c2)nc2c(N3CCC(n4c(=O)[nH]c5ccccc54)CC3)ncnc21 [Compound 285, 1-{1-[8-(5-bromopyridin-3-yl)-9-methyl-9H-purin-6-yl]piperidin-4-yl}-1,3-dihydro-2H-benzimidazol-2-one] | > 7.30
30 | Cn1cc(-c2nc3c(N4CCN(S(=O)(=O)c5ccccc5Cl)CC4)ncnc3n2C)cn1 [Compound 375, 6-{4-[(2-chlorophenyl)sulfonyl]piperazin-1-yl}-9-methyl-8-(1-methyl-1H-pyrazol-4-yl)-9H-purine] | 6.30 to 6.60
31 | Cn1cc(-c2nc3c(N4CCN(S(=O)(=O)c5ccccc5C(F)(F)F)CC4)ncnc3n2C)cn1 [Compound 378] | 6.60 to 7.30
32 | Cc1c(-c2nc3c(N4CCC(n5c(=O)[nH]c6ccccc65)CC4)ncnc3n2C)cnn1C [Compound 241, 1-{1-[8-(1,5-dimethyl-1H-pyrazol-4-yl)-9-methyl-9H-purin-6-yl]piperidin-4-yl}-1,3-dihydro-2H-benzimidazol-2-one] | > 7.30
33 | Cn1c(C(=O)NCC2CC2)nc2c(N3CCC4(CC3)CC(=O)c3ccccc34)ncnc21 [Compound 119, N-(cyclopropylmethyl)-9-methyl-6-(3-oxo-2,3-dihydro-1′H-spiro[indene-1,4′-piperidin]-1′-yl)-9H-purine-8-carboxamide] | 6.30 to 6.60
